Source: patent publication US9061984B2 (University of Louisville Research Foundation, Inc., priority 2008, dated 2015)
Values joined by “and” are separate entries in the source; they are usually repeats but may differ in a detail not shown here. Equal entries are not always repeated.

Tests used:
PC3 cells = test: Cell growth inhibition bioassay (sulforhodamine B); type: cell-based; settings: Homo sapiens, PC-3; 48 h, SRB; read-out: GI50 in indicated cell line: PC3
Method: The cytotoxicity of compounds was assayed as follows. […] Appropriate solvent controls were tested for comparison. The percent inhibition of cell growth relative to the control was evaluated colorimetrically using a sulforhodamine B dye by comparison to the control. The calorimetric procedure followed that published in Skehan et al., J. Nat. Cancer Inst., […], pp. 1107-1112 (1990) and Boyd & Paull, Drug Dev. Res., Vol. 34, pp. 91-109 (1995). […] The cell lines are: 3T3 cells are BALB/3T3 clone A31 embryonic mouse fibroblast cells; H460 cells are human large cell lung cancer cells; DU145 cells are human prostate carcinoma cells; MCF-7 cells are human breast adenocarcinoma cells; M-14 cells are human melanoma cells; HT-29 cells are human colon adenocarcinoma cells; PC3 cells are human prostate adenocarcinoma cells; K562 cells are human chronic myelogenous leukemia cells; and VERO cells are African Green Monkey kidney epithelial cells.

[1] = tested on: Trypanosoma cruzi (Tulahuen C4); test: In vitro anti-T. cruzi activity (β-galactosidase CPRG colorimetric assay in VERO monolayer); type: cell-based; settings: for IC50: Table 3, read-out: IC50 T. cruzi
HT-29 cells = test: Cell growth inhibition bioassay (sulforhodamine B); type: cell-based, human; settings: Homo sapiens, HT-29; 48 h, SRB; read-out: GI50 in indicated cell line: HT-29
Summary of the method: (§1)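 Cells were exposed to compound alongside matched solvent controls, then stained with sulforhodamine B. Percent growth inhibition was calculated from dye absorbance against the control.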

K562 cells = test: Cell growth inhibition bioassay (sulforhodamine B); type: cell-based, human; settings: Homo sapiens, K562; 48 h, SRB; read-out: GI50 in indicated cell line: K562
Summary of the method: as §1

H460 cells = test: Cell growth inhibition bioassay (sulforhodamine B); type: cell-based, human; settings: Homo sapiens, NCI-H460; 48 h, SRB; read-out: GI50 in indicated cell line: H460
Summary of the method: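 Human cancer cells (MCF-7 breast, DU145 and PC3 prostate, H460 large cell lung) were treated with compounds. Growth relative to solvent control was quantified by SRB protein stain.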

DU145 cells = test: Cell growth inhibition bioassay (sulforhodamine B); type: cell-based, human; settings: Homo sapiens, DU-145; 48 h, SRB; read-out: GI50 in indicated cell line: DU145
Summary of the method: (§2)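 SRB colorimetric read-out; % growth inhibition vs solvent control. Human lines: MCF-7 (breast adenocarcinoma), DU145 (prostate carcinoma), PC3 (prostate adenocarcinoma), H460 (large cell lung cancer).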

M-14 cells = test: Cell growth inhibition bioassay (sulforhodamine B); type: cell-based, human; settings: Homo sapiens, M14; 48 h, SRB; read-out: GI50 in indicated cell line: M-14
Summary of the method: as §1

MCF-7 cells = test: Cell growth inhibition bioassay (sulforhodamine B); type: cell-based, human; settings: Homo sapiens, MCF7; 48 h, SRB; read-out: GI50 in indicated cell line: MCF-7
Summary of the method: as §2

3T3 cells = test: Cell growth inhibition bioassay (sulforhodamine B); type: cell-based, mouse; settings: Mus musculus, NIH3T3; 48 h, SRB; read-out: GI50 in indicated cell line: 3T3
Summary of the method: as §1

[2] = Trypanosoma cruzi, TULAHUEN, Vero
[3] = 10 μg/mL of each compound, 120 hours

**Q.** Which melting point does the source give for `COc1ccc(CCC(=O)c2c(O)cc(OC)cc2OC)cc1` [Compound I-03, 1-(2-Hydroxy-4,6-dimethoxyphenyl)-3-(4-methoxyphenyl)-1-propanone] here?
**A.** The melting point was 107 °C.

**Q.** And the GI50 (PC3 cells)?
**A.** The GI50 was greater than 197 µM.

**Q.** What about the IC50 [1, 2] of the same compound?
**A.** The IC50 was greater than 100 µM.

**Q.** And the GI50 (HT-29 cells)?
**A.** Its GI50 is greater than 197 µM.

**Q.** And the GI50 (K562 cells)?
**A.** Its GI50 is greater than 197 µM.

**Q.** What about the GI50 (H460 cells) of the same compound?
**A.** The GI50 was greater than 197 µM.

**Q.** What about the GI50 (DU145 cells) of the same compound?
**A.** The GI50 was greater than 197 µM.

**Q.** What about the GI50 (M-14 cells) of the same compound?
**A.** Its GI50 is greater than 197 µM.

**Q.** What about the GI50 (MCF-7 cells) of the same compound?
**A.** Its GI50 is greater than 197 µM.

**Q.** And the GI50 (3T3 cells)?
**A.** The GI50 was greater than 197 µM.

**Q.** Which results are given for `COc1cc(O)c(C(=O)CCc2ccc3c(c2)OCO3)c(OC)c1` [Compound I-04, 3-(1,3-Benzodioxol-5-yl)-1-(2-hydroxy-4,6-dimethoxyphenyl)-1-propanone]?
**A.** melting point: 125 °C; GI50 (PC3 cells): 39.1 µM; T. cruzi Inhib. (%) [1, 3]: 12.96% and 3.24%; IC50 [1, 2]: > 100 µM; GI50 (HT-29 cells): 145 µM; GI50 (K562 cells): 28.2 µM; GI50 (H460 cells): 105 µM; GI50 (DU145 cells): 60.2 µM; GI50 (M-14 cells): 82 µM; GI50 (MCF-7 cells): 42.4 µM; GI50 (3T3 cells): 21.5 µM

**Q.** Which melting point does the source give for `COc1ccc(CCC(=O)c2c(O)cc(O)cc2OC)cc1` [Compound I-07, 1-(2,4-Dihydroxy-6-methoxyphenyl)-3-(4-methoxyphenyl)-1-propanone] here?
**A.** The melting point was 166 °C.

**Q.** What about the GI50 (PC3 cells) of the same compound?
**A.** Its GI50 is 59.9 µM.

**Q.** What about the “T. cruzi Inhib. (%)” value [1, 3] of the same compound?
**A.** The value was 27.74%.

**Q.** What about the inhibition at 10 µg/mL ([1]; Trypanosoma cruzi, TULAHUEN, Vero, 120 h, 10 μg/mL of each compound, 120 hours, read-out: T. cruzi Inhib. (%)) of the same compound?
**A.** The inhibition at 10 µg/mL was 20.5%.

**Q.** What about the IC50 [1, 2] of the same compound?
**A.** Its IC50 is greater than 25 µM.

**Q.** And the GI50 (HT-29 cells)?
**A.** The GI50 was greater than 206 µM.

**Q.** What about the GI50 (K562 cells) of the same compound?
**A.** The GI50 was 22.8 µM.

**Q.** And the GI50 (H460 cells)?
**A.** Its GI50 is 128 µM.

**Q.** What about the GI50 (DU145 cells) of the same compound?
**A.** Its GI50 is greater than 206 µM.

**Q.** What about the GI50 (M-14 cells) of the same compound?
**A.** Its GI50 is 109 µM.

**Q.** What about the GI50 (MCF-7 cells) of the same compound?
**A.** Its GI50 is 65.5 µM.

**Q.** And the GI50 (3T3 cells)?
**A.** The GI50 was greater than 206 µM.
